Data from patent publication US7879870B2, “Treatment of inflammatory and ulcerative diseases of the bowel with opioid antagonists” (priority 2006, dated 2011).
Entries after “also recorded” stand apart in the source; their conditions may differ. Where a name gives a salt, the structure may show the parent alone.

What was measured:
[1] = system: patients with active Crohn's disease; assay: Open-labeled pilot trial of LDN in active Crohn's disease: CDAI score, response, remission, fistulas; assay type: in vivo, human
Excerpt: In the following detailed example, low dose naltrexone, an opioid antagonist, is shown to be a safe and effective treatment for Crohn's disease. In a human clinical experiment, eligible patients were both male and female, at least eighteen years of age, and with the confirmed diagnosis of Crohn's disease by either endocopic or radiographic procedures. Patients had moderate to severely active disease as defined by a Crohn's Disease Activity Index (CDAI score) of >220 and <450. See, Best, et al., “Development of a Crohn's disease activity index. National Cooperative Crohn's Disease Study,” Gastroenterology 70, 439-44 (1976). Patients taking stable doses of aminosalicylates, immunomodulators, corticosteroids, or antibiotics were permitted to enter the study, and they were continued at the same dosage throughout the trial. Women of childbearing age were permitted to enroll and, if not surgically sterile, were required to use adequate contraception (defined as oral or depot contraceptive, IUD, or barrier plus spermicide) for the duration of the study. These women were required to continue adequate contraception for three months after the completion of the study. Exclusion criteria included women who were pregnant or breastfeeding, subjects with an ileostomy, colostomy, ileorectal anastomosis, or short bowel syndrome from surgery, and patients with abnormal liver function tests. Subjects taking tacrolimus, cyclosporine, mycophenolate, or infliximab within eight weeks of enrollment were excluded.
(§1) Eligibility was assessed by telephone, and potential candidates were scheduled for a screening visit. At the screening visit, patients were subjected to a history and physical examination and laboratory testing (chemistry panel, complete blood count [“CBC”], urinalysis, and erythrocyte sedimentation rate [“ESR”]). Patients were dispensed a seven-day diary to record symptoms of frequency of diarrhea, abdominal pain, and general well-being. Within fourteen days, patients returned for assessment and calculation of the CDAI score. Qualifying subjects were dispensed medication and given a new diary in order to calculate the subsequent month's CDAI score at the conclusion of this visit (baseline). Patients returned after two weeks for an interim visit to evaluate side effects and perform a CBC. Follow-up visits were scheduled for weeks 4, 8, 12, and 16.
Quality assurance of packaging and purity were confirmed an analytical research laboratory. Patients were treated with LDN orally each evening for three months. A monthly supply of medication was dispensed to patients. On the first visit, an additional ten-day supply of LDN was provided in the event of an appointment delay. Subjects were required to bring the vials to each appointment for counting and drug accountability; extra capsules were returned on the day of the visit and another month's supply dispensed. […]
(§2) An intent-to-treat analysis was performed in which the available data from all evaluable patients were included in the statistical analysis. The parameters of measurement (CDAI scores, laboratory values, and quality of life surveys) were analyzed by a biostatistician comparing baseline values to those obtained monthly and four weeks post-therapy. A longitudinal data analysis based upon the linear mixed-effects model was applied using PROC MIXED program (available from SAS Institute Inc., Cary, N.C.). The Bonferroni statistical method was used to adjust significance where analysis including multiple comparisons to the baseline were made. P-values for binary outcomes response and remission were calculated using the exact test for binomial proportions.

[2] = system: patients with active Crohn's disease; assay: Open-labeled pilot trial of LDN: quality of life surveys (IBDQ, SF-36 Health Survey); assay type: in vivo, human
Experimental: as §1
Quality assurance of packaging and purity were confirmed an analytical research laboratory. Patients were treated with LDN orally each evening for three months. A monthly supply of medication was dispensed to patients. On the first visit, an additional ten-day supply of LDN was provided in the event of an appointment delay. Subjects were required to bring the vials to each appointment for counting and drug accountability; extra capsules were returned on the day of the visit and another month's supply dispensed.
To assess quality of life, patients completed two standardized quality of life surveys, the Inflammatory Bowel Disease Questionnaire (“IBDQ”) and SF-36 Health Survey. See, Irvine, et al., “Quality of life: a valid and reliable measure of therapeutic efficacy in the treatment of inflammatory bowel disease. Canadian Crohn's Relapse Prevention Trial Study Group,” Gastroenterology 106(2), 287-96 (1994); Brazier, et al., “Validating the SF-36 health survey questionnaire: new outcome measure for primary care,” BMJ305(6846), 160-04 (1992).
as §2

[3] = system: patients with active Crohn's disease; assay: Open-labeled pilot trial of LDN: safety and toxicity (adverse events, body weight); assay type: in vivo, human
Experimental: as §1
Nonhematologic and hematologic toxicity were determined by the WHO criteria. See, Oken, et al., “Toxicity and response criteria of the Eastern Cooperative Oncology Group,” Am. J. Clin. Oncol. 5(6), 649-55 (1982).

human subjects = assay: Double-blinded placebo-controlled Phase II clinical trial, adverse events; assay type: in vivo; conditions: as of the date of application
[4] = one month (week 4) of LDN 4.5 mg/day
[5] = week 16, four weeks after discontinuation of LDN

SMILES: O=C1CC[C@@]2(O)[C@H]3Cc4ccc(O)c5c4[C@@]2(CCN3CC2CC2)[C@H]1O5 [LDN, Naltrexone hydrochloride]
- Fistulas in the two subjects with fistulas ([1]; LDN therapy, not previously responded to infliximab, hydrochloride): closure of the fistulas
- Enrolled patients who achieved remission (fraction in words) ([1]; at some point during LDN treatment): Two-thirds
- Patients who achieved a remission ([1]; at some point during the 16-week trial): 67%
- CDAI scores versus baseline (in words) ([1]; four weeks after completing therapy, hydrochloride): remained lower than baseline; also recorded: continued improvement in CDAI scores
- CDAI scores with LDN versus baseline (in words) ([1]; on therapy, 4.5 mg/day, baseline mean CDAI 356±27): decreased significantly
- Patients in remission (CDAI score of 150 points or less) [1, 4]: 29%
- Patients with response to therapy (decrease in CDAI score by 70 points) [1, 4]: 76%
- Mean CDAI score, decrease from baseline ([1]; week 4 of LDN 4.5 mg/day by mouth each evening, 17 patients): 41%
- Patients in remission (CDAI score of 150 points or less) ([1]; week 8 of LDN): 53%
- Patients with response to therapy (decrease in CDAI score by 70 points) ([1]; week 8 of LDN): 88%
- Mean CDAI score, decrease from baseline ([1]; week 8 of LDN 4.5 mg/day): 55%
- Patients in remission (CDAI score of 150 points or less) ([1]; week 12 of LDN): 47%
- Patients with response to therapy (decrease in CDAI score by 70 points) ([1]; week 12 of LDN): 88%
- Mean CDAI score, decrease from baseline ([1]; week 12 of LDN 4.5 mg/day): 49%
- Mean CDAI score, less than baseline [1, 5]: 45%
- Patients in remission (CDAI score of 150 points or less) [1, 5]: 33%
- Patients with response to therapy (decrease in CDAI score by 70 points) [1, 5]: 73%
- SF-36 physical function, greater than baseline ([2]; 4 and 8 weeks of LDN): 23%
- Quality of life by both surveys (IBDQ and SF-36) compared to baseline ([2]; on LDN therapy): significant improvement; also recorded: improved the quality of life
- SF-36 health perception, greater than baseline ([2]; week 8 of LDN): 33%
- SF-36 health perception, greater than baseline ([2]; week 12 of LDN): 49%
- SF-36 social function, greater than baseline ([2]; weeks 4, 8 and 12, only statistically different at week 8): 70%
- SF-36 bodily pain, improvement ([2]; weeks 4, 8 and 12 of LDN): 61-65%
- SF-36 emotional health versus baseline ([2]; weeks 4, 8 and 12 of LDN): comparable to baseline values
- SF-36 physical role scores, improvement ([2]; weeks 4, 8 and 12 of LDN): 5- to 8 fold
- SF-36 role-emotional versus baseline ([2]; weeks 4, 8 and 12 of LDN): comparable to baseline values
- IBDQ survey, quality of life compared to baseline ([2]; weeks 4, 8 and 12 on LDN and one month after completion): significant improvement in quality of life
- SF-36 energy scores, greater than at initiation of therapy ([2]; weeks 8 and 12 of LDN): at least 2 fold
- Sleep disturbances, number of patients ([3]; 17 patients enrolled): 7 patients
- Subjects who changed timing of LDN from evening to morning due to insomnia ([3]; 17 patients enrolled): Five
- Unusual dreams, number of patients reporting ([3]; 17 patients enrolled): one
- Dose reduction for sleep disturbances ([3]; in vivo): In no instance was a dose reduction necessary
- Safety profile ([3]; pilot study, 4.5 mg daily): infrequent and minor side effects and no known suppression of immunity or increased risk of secondary infections
- Body weight ([3]; screening visit through week 16): no significant change in body weight
- Serious adverse events (human subjects): has not revealed any serious adverse events
